According to ChEMBL document CHEMBL1687804, “Comparative efficacies of human simulated exposures of telavancin and vancomycin against methicillin-resistant Staphylococcus aureus with a range of vancomycin MICs in a murine pneumonia model” (Antimicrob Agents Chemother, 2010):
Activity calls are given as the source filed them. The rule behind the calls is not given here.

Columns and labels:
[1] = test system: Staphylococcus aureus; experiment: Antibacterial activity against hospital-associated methicillin-resistant Staphylococcus aureus isolate 360 infected in neutropenic BALB/c mouse lung infection model assessed as reduction of CFU at 110 mg/kg, ip administered every 12 hrs measured after 24 hrs; type: functional, organism-based; design: dose 110 mg/kg
[2] = test system: Staphylococcus aureus; experiment: Antibacterial activity against hospital-associated methicillin-resistant Staphylococcus aureus isolate 412 infected in neutropenic BALB/c mouse lung infection model assessed as reduction of CFU at 110 mg/kg, ip administered every 12 hrs measured after 24 hrs; type: functional, organism-based; design: dose 110 mg/kg
[3] = test system: Staphylococcus aureus; experiment: Antibacterial activity against vancomycin-heteroresistant Staphylococcus aureus isolate 38 (Mu3) infected in neutropenic BALB/c mouse lung infection model assessed as reduction of CFU at 110 mg/kg, ip administered every 12 hrs measured after 24 hrs; type: functional, organism-based; design: dose 110 mg/kg
[4] = test system: Staphylococcus aureus; experiment: Antibacterial activity against community-associated methicillin-resistant Staphylococcus aureus isolate 156 infected in neutropenic BALB/c mouse lung infection model assessed as reduction of CFU at 110 mg/kg, ip administered every 12 hrs measured after 24 hrs; type: functional, organism-based; design: dose 110 mg/kg
[5] = test system: Staphylococcus aureus; experiment: Antibacterial activity against vancomycin-intermediate Staphylococcus aureus isolate 454 (NRS404) infected in neutropenic BALB/c mouse lung infection model assessed as reduction of CFU at 110 mg/kg, ip administered every 12 hrs measured after 24 hrs; type: functional, organism-based; design: dose 110 mg/kg
[6] = test system: Mus musculus; experiment: fAUC in BALB/c mouse at 110 mg/kg, sc administered every 12 hrs; conditions: in vivo
[7] = test system: Staphylococcus aureus; experiment: Antibacterial activity against hospital-associated methicillin-resistant Staphylococcus aureus isolate 336 infected in neutropenic BALB/c mouse lung infection model assessed as reduction of CFU at 110 mg/kg, ip administered every 12 hrs measured after 24 hrs; type: functional, organism-based; design: dose 110 mg/kg
[8] = test system: Staphylococcus aureus; experiment: Antibacterial activity against vancomycin-intermediate Staphylococcus aureus isolate 435 infected in neutropenic BALB/c mouse lung infection model assessed as reduction of CFU at 110 mg/kg, ip administered every 12 hrs measured after 24 hrs; type: functional, organism-based; design: dose 110 mg/kg
[9] = test system: Staphylococcus aureus; experiment: Antibacterial activity against hospital-associated methicillin-resistant Staphylococcus aureus isolate 152 infected in neutropenic BALB/c mouse lung infection model assessed as reduction of CFU at 110 mg/kg, ip administered every 12 hrs measured after 24 hrs; type: functional, organism-based; design: dose 110 mg/kg
[10] = test system: Homo sapiens; experiment: fAUC in human at 1 gram administered every 12 hrs; type: ADME, organism-based; conditions: in vivo
[11] = test system: Staphylococcus aureus; experiment: Antibacterial activity against hospital-associated methicillin-resistant Staphylococcus aureus isolate 56 (494) infected in neutropenic BALB/c mouse lung infection model assessed as reduction of CFU at 110 mg/kg, ip administered every 12 hrs measured after 24 hrs; type: functional, organism-based; design: dose 110 mg/kg
[12] = test system: Staphylococcus aureus; experiment: Antibacterial activity against vancomycin-heteroresistant Staphylococcus aureus isolate 443 infected in neutropenic BALB/c mouse lung infection model assessed as reduction of CFU at 110 mg/kg, ip administered every 12 hrs measured after 24 hrs; type: functional, organism-based; design: dose 110 mg/kg
[13] = test system: Staphylococcus aureus; experiment: Antibacterial activity against vancomycin-intermediate Staphylococcus aureus isolate 440 (A6298) infected in neutropenic BALB/c mouse lung infection model assessed as reduction of CFU at 110 mg/kg, ip administered every 12 hrs measured after 24 hrs; type: functional, organism-based; design: dose 110 mg/kg
[14] = test system: Staphylococcus aureus; experiment: Antibacterial activity against community-associated methicillin-resistant Staphylococcus aureus isolate 145 infected in neutropenic BALB/c mouse lung infection model assessed as reduction of CFU at 110 mg/kg, ip administered every 12 hrs measured after 24 hrs; type: functional, organism-based; design: dose 110 mg/kg
[15] = test system: Staphylococcus aureus; experiment: Antibacterial activity against vancomycin-intermediate Staphylococcus aureus isolate 453 (NRS23) infected in neutropenic BALB/c mouse lung infection model assessed as reduction of CFU at 110 mg/kg, ip administered every 12 hrs measured after 24 hrs; type: functional, organism-based; design: dose 110 mg/kg
[16] = AUC (0 to 12 hrs) in BALB/c mouse at 110 mg/kg, sc; conditions: plasma

In the case of CN[C@H](CC(C)C)C(=O)N[C@H]1C(=O)N[C@@H](CC(N)=O)C(=O)N[C@H]2C(=O)N[C@H]3C(=O)N[C@H](C(=O)N[C@H](C(=O)O)c4cc(O)cc(O)c4-c4cc3ccc4O)[C@H](O)c3ccc(c(Cl)c3)Oc3cc2cc(c3O[C@@H]2O[C@H](CO)[C@@H](O)[C@H](O)[C@H]2O[C@H]2C[C@](C)(N)[C@H](O)[C@H](C)O2)Oc2ccc(cc2Cl)[C@H]1O [VANCOMYCIN], the Activity [1] is reported as “Active”, the Activity [2] is reported as “Active” and the Activity [3] is reported as “Active”. For the same compound, the Activity [4] was “Active”, the Activity [5] was “Active” and the fAUC [6] was 196 µg·h/mL. For the same compound, the Activity [7] was “Active”, the Activity [8] was “Active” and the Activity [9] was “Active”. The fAUC [10] was 208 µg·h/mL, the Activity [11] was “Active” and the Activity [12] was “Active”. The Activity [13] was “Active”, the Activity [14] was “Active” and the Activity [15] was “Active”. For the same compound, the AUC(0-t) at 12 h [16] was 140 µg·h/mL.
